Results from patent US5157019A, “Serine protease inhibitors” (Monsanto Company, priority 1991, dated 1992).
Read-outs that look alike come from different tables or passages of the source. Ends that are not written are not given here.

Assays:
Format in all cases: biochemical
HUMAN SPUTUM ELASTASE = target: T1, HUMAN SPUTUM ELASTASE (Homo sapiens, UniProt P08246); test: Elastase assay (MeO-Suc-Ala-Pro-Val-pNA); conditions: 200 μM peptide
T1 construct: HUMAN SPUTUM ELASTASE; purchased Elastin Products Company SE563; host or cells: human sputum (from the product name)
T1 sequence (P08246 30-267): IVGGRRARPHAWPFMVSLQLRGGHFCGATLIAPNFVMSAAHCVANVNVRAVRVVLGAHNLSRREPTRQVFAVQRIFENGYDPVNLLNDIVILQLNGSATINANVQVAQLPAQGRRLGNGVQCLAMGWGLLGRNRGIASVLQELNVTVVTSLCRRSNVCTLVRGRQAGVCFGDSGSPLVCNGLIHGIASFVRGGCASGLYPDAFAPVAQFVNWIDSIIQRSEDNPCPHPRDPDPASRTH
Description: Enzyme used is "HUMAN SPUTUM ELASTASE®" which is an enzyme which is the target protease for α1 antitrypsin from Elastin Products Company, Catalog No. SE563, lot 85071, 875 units/mg as determined by supplier with N-Suc-Ala-Ala-Ala-pNA; prepared at 0.2 mg/mL in 0.1M Tris·HCl, pH 8.8 at 37 degrees C. An amount of enzyme is used to give approximately 0.1 change in Absorbance/min; which in this assay was 1 μg.
The substrate is MeO-Suc-Ala-Pro-Val-pNA, Sigma Catalog No. M-4765. About 50 mg of the substrate is dissolved in 1 ml of 1-methyl-2-pyrrolidinone and diluted to 33 mls. with 0.1M Tris-HCl, pH 7.5, containing 0.5M NaCl, and 0.01 wt % sodium azide.
Peptide solutions are prepared at 500 μM, using 1.5% of the final volume of DMSO first and diluting with distilled water (DW) or 0.1M Tris.HCl, pH 8.8 at 37 degrees C. [formula]

Plasmin = Plasmin (Homo sapiens, UniProt P00747); test: Plasmin assay (S2251); conditions: 200 μM peptide
Plasmin, sequence (P00747 581-810 limits assumed): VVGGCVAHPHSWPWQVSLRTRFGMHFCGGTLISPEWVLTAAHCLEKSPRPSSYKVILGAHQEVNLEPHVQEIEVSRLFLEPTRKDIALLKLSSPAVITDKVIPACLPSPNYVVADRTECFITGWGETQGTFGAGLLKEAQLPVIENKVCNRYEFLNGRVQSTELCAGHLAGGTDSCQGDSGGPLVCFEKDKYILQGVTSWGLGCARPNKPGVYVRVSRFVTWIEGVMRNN
Plasmin, sequence (P00747 97-580 partner limits assumed): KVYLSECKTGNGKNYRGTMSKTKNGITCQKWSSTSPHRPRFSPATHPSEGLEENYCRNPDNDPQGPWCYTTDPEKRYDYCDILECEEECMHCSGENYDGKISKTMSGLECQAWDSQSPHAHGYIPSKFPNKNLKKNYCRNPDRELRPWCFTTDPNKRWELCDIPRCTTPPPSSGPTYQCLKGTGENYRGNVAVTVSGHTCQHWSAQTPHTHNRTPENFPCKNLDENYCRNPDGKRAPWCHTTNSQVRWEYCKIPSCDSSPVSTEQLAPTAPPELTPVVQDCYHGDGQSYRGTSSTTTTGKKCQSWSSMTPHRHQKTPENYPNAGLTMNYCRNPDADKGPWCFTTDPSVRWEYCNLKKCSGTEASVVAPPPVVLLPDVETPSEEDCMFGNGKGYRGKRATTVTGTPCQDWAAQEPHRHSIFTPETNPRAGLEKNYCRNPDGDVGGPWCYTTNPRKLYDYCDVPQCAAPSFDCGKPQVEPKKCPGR
Description: Substrate H-D-Val-Leu-Lys-pNA·HCl (S2251, Kabi), 10 mM in deionized water; may be frozen for future use.
Buffer 50 mM Tris·HCl, pH 7.4 containing 0.01% Tween 80
Inhibitor 400 μM in deionized water
Enzyme Plasmin; 0.5 U/ml in buffer (Cat #P-4895, Sigma Chemical Co., St. Louis, Mo.)
Mix 220 μL buffer, 200 μL deionized water (control) or inhibitor solution and 40 μL substrate. Incubate for 2 min at 37° C. Transfer 230 μL to a microcuvette, add 40 μL of enzyme, mix, and measure rate spectrophotometrically at 405 nm for about 5 min. Inhibition (%) is calculated in the same manner as in previous assays.

Cathepsin G = target: T2, Cathepsin G (Homo sapiens, UniProt P08311); test: Cathepsin G assay (Suc-Ala-Ala-Pro-Phe-pNA, 410 nm); conditions: for inhibition at 100 µM / Cathepsin G % inhibition: 100 μM peptide (Tables VI, VIII); for inhibition at 200 µM / Cathepsin G Inhibition: 200 μM peptide (head of Table IX)
T2 construct: purchased Elastin Products Company (EPC) SG-45
T2 sequence (P08311 21-255): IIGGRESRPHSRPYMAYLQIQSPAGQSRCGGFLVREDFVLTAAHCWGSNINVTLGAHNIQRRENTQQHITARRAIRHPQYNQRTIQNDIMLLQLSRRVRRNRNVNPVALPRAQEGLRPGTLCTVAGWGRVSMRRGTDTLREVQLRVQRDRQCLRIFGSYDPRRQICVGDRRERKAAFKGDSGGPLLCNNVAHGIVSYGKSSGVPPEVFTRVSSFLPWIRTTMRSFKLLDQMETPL
Description: Reference: Elastin Products Company (EPC) technical data sheet, cathepsin G, No. SG-45.
Method: Spectrophotometric rate determination
A) Buffer; 0.1M Tris, pH 7.5 at 25° C.
B) Substrate; 60 mM Suc-Ala-Ala-Pro-Phe-pNA obtained from Sigma Chemical Company. Solution prepared by dissolving 50 mg substrate in 1.3 ml of 1-methyl-2-pyrrolidinone. Stored at 5° C.
C) Peptide Inhibitors; 200 μM HCl salt. Depending on peptide solubility, dissolved in buffer or DMSO and then buffer added for a final concentration of 10% DMSO.
D) Enzyme; Cathepsin G, EPC SG-45, lot 85117 used for all assays, 0.0077 mg protein per mg solid determined by supplier by Bradford method. Enzyme was dissolved in buffer at a concentration of approx. 5 mg/ml solid. Solution stored on ice, used within 2 hours.
Pipetted the following into semi-micro quartz cuvettes: 0.3 ml buffer, 0.15 ml peptide solution and 0.5 ml of substrate solution. Equilibrate for 5 min. at 25° C., then add 0.05 ml of enzyme solution and monitor the release of pNA spectrophotometrically at 410 nm for at least 3 minutes. The controls contain either 0.45 ml of buffer or 20% DMSO in buffer (for a final concentration of 10% DMSO).
The rate (O.D./min) is obtained as an average over 3 minutes. [formula]

Factor D = target: T3, Factor D (Homo sapiens, UniProt P00746); test: Factor D assay by inhibition of fluid phase Factor B activation
T3 construct: prepared from pooled human plasma; from tissue; host or cells: pooled human plasma
T3 sequence (P00746 26-253): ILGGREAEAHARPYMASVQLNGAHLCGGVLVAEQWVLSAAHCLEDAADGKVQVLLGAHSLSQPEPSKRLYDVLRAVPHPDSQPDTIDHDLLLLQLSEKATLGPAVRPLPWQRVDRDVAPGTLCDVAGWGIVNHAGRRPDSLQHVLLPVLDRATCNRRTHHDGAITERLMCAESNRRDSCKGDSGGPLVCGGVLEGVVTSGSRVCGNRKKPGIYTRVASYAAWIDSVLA
Description: Highly purified C3, C4, Factor D, Factor B, and C1s were prepared from pooled human plasma. Factors B and C4 were radiolabeled by periodate oxidation of sialic acid residues, followed by reduction with tritiated sodium borohydride. In a representative experiment, a solution of 1.2 mg of factor B in 1.8 ml of PBS was treated with 70 μl of 0.1M NaIO4. After 10 min incubation on ice, excess reagent was removed by filtration over "SEPHADEX®" which is a matrix for gel chromatography (1.0 cm×20 cm). To the protein pool was added 60 μl of NaB[^3 H]4 solution and incubated for 30 min on ice. Labeled protein was separated from excess reagent by desalting or dialysis. Human C4 was radiolabeled in the same manner. Radiolabeled proteins were stored at -70° C. in PBS. The specific radioactivity of ^3 H factor B was about 10,000 CPM/μg and that of ^3 H-C4 was 5,000 CPM/μg.
The effect of the peptides on Factor D-dependent cleavage of factor B was studied by incubating 3.5 μg of Factor B, 1.5 μg of C3(H2 O) and 0.2 μl of Factor D at 37° C. for 60 min in Mg-PBS containing different concentrations of inhibitor. Uncleaved Factor B and its fragments, Ba and Bb, were first separated by SDS-PAGE and analyzed as described above. The percent cleavage of the reaction was calculated as follows: [formula]
B=radioactivity (CPM) of uncleaved factor B
Bb=radioactivity (CPM) of fragment Bb
Ba=radioactivity (CPM) of fragment Ba
Electrophoresis was carried out under reducing conditions in the Laemmli system using slab gel of 8% polyacrylamide. The gels were stained and destained (Fairbanks et al. Biochemistry (1971) 10:2606).
The percent inhibition of the reaction was calculated according to the following relationship: [formula]
A: % cleavage without inhibitor
B: % cleavage with inhibitor
The concentration inducing 50% inhibition was obtained by plotting the percent inhibition on a probability graph (National Blank Book Co., No. 12-083) on the ordinate and the log of the inhibitor concentration on the abscissa. From this graph, a 50% inhibition concentration IC50 was obtained and this value was employed to express the activity.

[1] = Table X, μM concentration at which protease was inhibited 50%, read-out: IC50 D
[2] = Tables VI and VIII, % 50, read-out: Factor D, μM concentration listed for 50 % inhibition

Row | Elastase Inhibition (HUMAN SPUTUM ELASTASE) | inhibition at 200 µM (HUMAN SPUTUM ELASTASE) [%] | inhibition at 200 µM (Plasmin) [%] | inhibition at 100 µM (Cathepsin G) [%] | inhibition at 200 µM (Cathepsin G) [%] | inhibition at 200 µM (Factor D; 200 μM peptide) [%] | IC50 (Factor D; [1]) [µM] | IC50 (Factor D; [2]) [µM] | Plasmin % inhibition (Plasmin) [%] | Cathepsin G % inhibition (Cathepsin G) [%] | Cathepsin G Inhibition (Cathepsin G) [%] | Molecule
1 |  | 0 |  |  | 52 |  | < 25 |  |  |  |  | AGRSLNPNRVTFKANRPFLVFIREVPLNTIIFLGRVANP [Peptide 27]
2 | 0% |  |  |  |  |  |  | 4 | 56 | 46 | 46 | IVRFNRPFLLIIVPTDTQNIFFLSKVTNPSKPR [Peptide 22]
3 |  | 0 | 53 | 38 | 38 |  | < 8 | < 8 |  |  |  | RVTFKANRPFLVFIREVPLNTIIFLGRVANP [Peptide 21]

The next lines start with the molecule.

Row | Molecule | Elastase Inhibition (HUMAN SPUTUM ELASTASE) | inhibition at 200 µM (HUMAN SPUTUM ELASTASE) [%] | inhibition at 200 µM (Plasmin) [%] | inhibition at 100 µM (Cathepsin G) [%] | inhibition at 200 µM (Cathepsin G) [%] | inhibition at 200 µM (Factor D; 200 μM peptide) [%] | IC50 (Factor D; [1]) [µM] | IC50 (Factor D; [2]) [µM] | Plasmin % inhibition (Plasmin) [%] | Cathepsin G % inhibition (Cathepsin G) [%] | Cathepsin G Inhibition (Cathepsin G) [%]
4 | CC[C@H](C)[C@H](NC(=O)[C@H](CC(C)C)NC(=O)[C@H](Cc1ccccc1)NC(=O)[C@@H](NC(=O)[C@H](Cc1ccccc1)NC(=O)[C@@H]1CCCN1C(=O)[C@H](CCCCN)NC(=O)[C@H](CC(N)=O)NC(=O)[C@H](Cc1ccccc1)NC(=O)[C@H](CCCCN)NC(=O)[C@@H](NC(=O)[C@H](CCC(=O)O)NC(=O)[C@@H]1CCCN1C(=O)[C@@H]1CCCN1)C(C)C)C(C)C)C(=O)O [Peptide 1] | no inhibitory activity | 0 | 37 | 0 | 0 | 0 |  |  |  |  | 
5 | IVRFNRPFLLII [Peptide 3] |  | 0 | 33 | 32 | 32 |  |  | 111 |  |  | 
6 | PNRVTFKANRPFLVFI [Peptide 2] |  | 0 | 33 | 13 | 13 |  |  | 53 |  |  | 
7 | VKFNKPFVFLLIEQNTKSPLFLGKVVNPTQK [Peptide 20] | 0% |  |  |  |  |  |  | 16 | 43 | 0 | 0
